Several values for one entry are separate records, joined by “and”; a condition that tells them apart may be missing. Equal entries are not always repeated. Numbers after ± are expanded uncertainties.
Test: molar heat capacity at saturation pressure
Details: Small (less than 1 g) adiabatic calorimetry

ON=C1CCCCC1 [cyclohexanone oxime]
Details | molar heat capacity
303.01 K, Crystal 1 | 192.59 ± 1 J/K/mol
303.67 K, Crystal 1 | 191.89 ± 1 J/K/mol
303.76 K, Crystal 1 | 191.84 ± 1 J/K/mol
304.57 K, Crystal 1 | 191.66 ± 1 J/K/mol
305.34 K, Crystal 1 | 191.58 ± 1 J/K/mol
305.36 K, Crystal 1 | 191.49 ± 1 J/K/mol
305.83 K, Crystal 1 | 191.51 ± 1 J/K/mol
306.14 K, Crystal 1 | 191.69 ± 1 J/K/mol
306.91 K, Crystal 1 | 191.81 ± 1 J/K/mol
307.05 K, Crystal 1 | 191.78 ± 1 J/K/mol
307.6 K, Crystal 1 | 191.89 ± 1 J/K/mol
307.71 K, Crystal 1 | 191.96 ± 1 J/K/mol
308.49 K, Crystal 1 | 192.2 ± 1 J/K/mol
308.74 K, Crystal 1 | 192.41 ± 1 J/K/mol
309.27 K, Crystal 1 | 192.53 ± 1 J/K/mol
309.38 K, Crystal 1 | 192.47 ± 1 J/K/mol
310.07 K, Crystal 1 | 192.72 ± 1 J/K/mol
310.43 K, Crystal 1 | 193 ± 1 J/K/mol
310.95 K, Crystal 1 | 193.22 ± 1 J/K/mol
311.16 K, Crystal 1 | 193.22 ± 1 J/K/mol
311.68 K, Crystal 1 | 193.28 ± 1 J/K/mol
312.22 K, Crystal 1 | 193.77 ± 1 J/K/mol
312.72 K, Crystal 1 | 193.93 ± 1 J/K/mol
312.94 K, Crystal 1 | 194.04 ± 1 J/K/mol
313.36 K, Crystal 1 | 194.05 ± 1 J/K/mol
314.11 K, Crystal 1 | 194.56 ± 1 J/K/mol
314.48 K, Crystal 1 | 194.7 ± 1 J/K/mol
314.72 K, Crystal 1 | 194.7 ± 1 J/K/mol
315.03 K, Crystal 1 | 194.86 ± 1 J/K/mol
316 K, Crystal 1 | 195.45 ± 1.1 J/K/mol
316.25 K, Crystal 1 | 195.55 ± 1.1 J/K/mol
316.49 K, Crystal 1 | 195.61 ± 1.1 J/K/mol
316.71 K, Crystal 1 | 195.66 ± 1.1 J/K/mol
317.89 K, Crystal 1 | 196.42 ± 1.1 J/K/mol
318.01 K, Crystal 1 | 196.38 ± 1.1 J/K/mol
318.27 K, Crystal 1 | 196.48 ± 1.1 J/K/mol
318.38 K, Crystal 1 | 196.46 ± 1.1 J/K/mol
319.77 K, Crystal 1 | 197.45 ± 1.1 J/K/mol and 197.36 ± 1.1 J/K/mol
320.04 K, Crystal 1 | 197.43 ± 1.1 J/K/mol
320.11 K, Crystal 1 | 197.4 ± 1.1 J/K/mol
321.54 K, Crystal 1 | 198.27 ± 1.1 J/K/mol
321.81 K, Crystal 1 | 198.43 ± 1.1 J/K/mol
321.98 K, Crystal 1 | 198.37 ± 1.1 J/K/mol
323.3 K, Crystal 1 | 199.26 ± 1.1 J/K/mol
323.58 K, Crystal 1 | 199.58 ± 1.1 J/K/mol
323.8 K, Crystal 1 | 199.44 ± 1.1 J/K/mol
325.05 K, Crystal 1 | 200.28 ± 1.1 J/K/mol
325.35 K, Crystal 1 | 200.52 ± 1.1 J/K/mol
325.62 K, Crystal 1 | 200.47 ± 1.1 J/K/mol
326.81 K, Crystal 1 | 201.27 ± 1.1 J/K/mol
327.11 K, Crystal 1 | 201.48 ± 1.1 J/K/mol
327.43 K, Crystal 1 | 201.55 ± 1.1 J/K/mol
328.56 K, Crystal 1 | 202.22 ± 1.1 J/K/mol
328.87 K, Crystal 1 | 202.64 ± 1.1 J/K/mol
329.24 K, Crystal 1 | 202.56 ± 1.1 J/K/mol
330.32 K, Crystal 1 | 203.27 ± 1.1 J/K/mol
330.63 K, Crystal 1 | 203.71 ± 1.1 J/K/mol
331.06 K, Crystal 1 | 203.58 ± 1.1 J/K/mol
331.23 K, Crystal 1 | 203.73 ± 1.1 J/K/mol
332.4 K, Crystal 1 | 204.63 ± 1.1 J/K/mol
332.88 K, Crystal 1 | 204.71 ± 1.1 J/K/mol
332.98 K, Crystal 1 | 204.75 ± 1.1 J/K/mol
334.15 K, Crystal 1 | 205.6 ± 1.1 J/K/mol
334.7 K, Crystal 1 | 205.74 ± 1.1 J/K/mol
334.74 K, Crystal 1 | 205.77 ± 1.1 J/K/mol
335.91 K, Crystal 1 | 206.77 ± 1.1 J/K/mol
336.49 K, Crystal 1 | 206.75 ± 1.1 J/K/mol
336.52 K, Crystal 1 | 206.77 ± 1.1 J/K/mol
337.67 K, Crystal 1 | 207.8 ± 1.1 J/K/mol
338.25 K, Crystal 1 | 207.78 ± 1.1 J/K/mol
338.35 K, Crystal 1 | 207.86 ± 1.1 J/K/mol
339.42 K, Crystal 1 | 208.77 ± 1.1 J/K/mol
339.99 K, Crystal 1 | 208.85 ± 1.1 J/K/mol
340.17 K, Crystal 1 | 209 ± 1.1 J/K/mol
341.17 K, Crystal 1 | 209.83 ± 1.1 J/K/mol
341.74 K, Crystal 1 | 209.95 ± 1.1 J/K/mol
341.99 K, Crystal 1 | 210.15 ± 1.1 J/K/mol
342.93 K, Crystal 1 | 210.86 ± 1.1 J/K/mol
343.49 K, Crystal 1 | 210.94 ± 1.1 J/K/mol
343.81 K, Crystal 1 | 211.29 ± 1.1 J/K/mol
344.68 K, Crystal 1 | 212.1 ± 1.1 J/K/mol
345.25 K, Crystal 1 | 212.02 ± 1.1 J/K/mol
345.63 K, Crystal 1 | 212.36 ± 1.1 J/K/mol
346.43 K, Crystal 1 | 213.18 ± 1.1 J/K/mol
346.99 K, Crystal 1 | 213.12 ± 1.1 J/K/mol
347.45 K, Crystal 1 | 213.43 ± 1.1 J/K/mol
348.18 K, Crystal 1 | 214.14 ± 1.1 J/K/mol
348.74 K, Crystal 1 | 214.13 ± 1.1 J/K/mol
349.27 K, Crystal 1 | 214.58 ± 1.1 J/K/mol
349.93 K, Crystal 1 | 215.3 ± 1.1 J/K/mol
350.48 K, Crystal 1 | 215.24 ± 1.1 J/K/mol
351.09 K, Crystal 1 | 215.74 ± 1.1 J/K/mol
351.67 K, Crystal 1 | 216.38 ± 1.1 J/K/mol
352.41 K, Crystal 1 | 216.96 ± 1.1 J/K/mol
352.91 K, Crystal 1 | 217.26 ± 1.1 J/K/mol
353.42 K, Crystal 1 | 217.49 ± 1.1 J/K/mol
354.55 K, Crystal 1 | 219.52 ± 1.2 J/K/mol
354.73 K, Crystal 1 | 219 ± 1.2 J/K/mol
355.16 K, Crystal 1 | 218.64 ± 1.2 J/K/mol
363.8 K, Liquid | 272.42 ± 1.4 J/K/mol
364.48 K, Liquid | 272.66 ± 1.4 J/K/mol
364.59 K, Liquid | 273 ± 1.4 J/K/mol
365.34 K, Liquid | 273.22 ± 1.4 J/K/mol
365.92 K, Liquid | 273.48 ± 1.4 J/K/mol
366.16 K, Liquid | 273.91 ± 1.4 J/K/mol
366.88 K, Liquid | 274.16 ± 1.4 J/K/mol
367.36 K, Liquid | 274.33 ± 1.4 J/K/mol
367.52 K, Liquid | 274.57 ± 1.4 J/K/mol
367.73 K, Liquid | 274.96 ± 1.4 J/K/mol
368.42 K, Liquid | 275.12 ± 1.4 J/K/mol
368.79 K, Liquid | 275.25 ± 1.4 J/K/mol
368.96 K, Liquid | 275.31 ± 1.4 J/K/mol

Reference: the NIST ThermoML archive (doi:10.1021/je700546r)
